Structures are written as SMILES. Calls of active or inactive are those of the source. The rule behind the calls is not given here.

In general, AUC refers to the area under the concentration-time curve, a measure of exposure. A high value points to high exposure. By half-life is commonly meant the time in which the quantity being followed falls by half. A high value points to slow loss. One may read the EC50 as the concentration needed to bring the measured effect to its halfway point. Read a high EC50 as lower potency in that assay.

Data set [1] relates to Human gammaherpesvirus 4. Put plainly: Antiviral activity against Epstein Barr virus upto 150 uM. It is filed as functional, organism-based.
A short description of data set [2]: AUC in CD-1 mouse at 100 mg/kg measured for 24 hrs by MS analysis. The format is ADME, organism-based. The note with it: in vivo.
Data set [3] has as its system Middle East respiratory syndrome-related coronavirus. Put plainly: Antiviral activity against MERS CoV upto 100 uM. The format is functional, organism-based.
Data set [4] deals with dengue virus type 2. Put plainly: Antiviral activity against Dengue virus 2 upto 100 uM. It is filed as functional, organism-based.
The test system of data set [5] is Nipah virus. Put plainly: Antiviral activity against Nipah virus upto 100 uM. The format is functional, organism-based. The note with it: Henipavirus nipahense.
Data set [6] is described as follows: Toxicity in CD-1 mouse assessed as occurence of adverse event at 100 to 300 mg/kg, ip for 3 days. It is filed as organism-based. The note with it: in vivo, 72 h, dose 100-300 mg/kg, time 3 day.
Data set [7] concerns Chikungunya virus. Put plainly: Antiviral activity against Chikungunya virus upto 100 uM. The format is functional, organism-based.
Data set [8] deals with Cytomegalovirus. Put plainly: Antiviral activity against Cytomegalovirus upto 150 uM. It is filed as functional, organism-based.
Data set [9] is described as follows: Half life in CD-1 mouse at 100 mg/kg by MS analysis. It is filed as ADME, organism-based. The note with it: in vivo.
Data set [10] can be described thus: Toxicity in CD-1 mouse assessed as drug tolerance at 100 to 300 mg/kg, ip for 3 days. The format is organism-based. The note with it: in vivo, 72 h, dose 100-300 mg/kg, time 3 day.
Data set [11] deals with Human alphaherpesvirus 1. Put plainly: Antiviral activity against HSV 1 upto 150 uM. The format is functional, organism-based.
The subject of data set [12] is Zaire ebolavirus. Put plainly: Antiviral activity against Zaire Ebola virus upto 100 uM. The format is functional, organism-based.
The test system of data set [13] is Zaire ebolavirus. Put plainly: Antiviral activity against Zaire Ebola virus. The format is functional, organism-based.

For the molecule `CNc1nc(N)ncc1-c1cn([C@@H]2O[C@H](CO)[C@@H](O)[C@@]2(C)F)cn1`, the result in [1], in data set [3], in [4], in data set [5], in [7] and in [8] was inactive. Also, the result in data set [11] and in data set [12] was inactive. In data set [2], the AUC turned out to be 36000 ng·h/mL. Further, the Activity result in data set [6] and in data set [10] was “Non-Toxic” each time. Moreover, in data set [9], the half-life was determined as 1 h.

For the molecule `CNc1nc(N)ncc1-c1cn([C@@H]2O[C@H](CO[P@@](=O)(N[C@@H](C)C(=O)OC(C)C)Oc3ccccc3)[C@@H](O)[C@@]2(C)F)cn1`, the outcome in data set [1], in [3], in data set [4], in data set [5], in data set [7] and in [8] was inactive. Moreover, the outcome in data set [11] was inactive. Also, the EC50 in data set [13] is 30 µM.

(Values after ChEMBL document CHEMBL5614423, “Proximal fleximer analogues of 2'-deoxy-2'-fluoro-2'-methyl purine nucleos(t)ides: Synthesis and preliminary pharmacokinetic and antiviral evaluation” (Bioorg Med Chem, 2024).)
